This note sets out measurements from paper PMC5437664, “Inhibition of O-GlcNAcase leads to elevation of O-GlcNAc tau and reduction of tauopathy and cerebrospinal fluid tau in rTg4510 mice” (Molecular Neurodegeneration, 2017).

The target in the assay is O-GlcNAcase (OGA) (Mus musculus, UniProt Q9EQQ9). Put plainly: biochemical.

Usually Kd stands for a measure of binding affinity in units of concentration. A high value points to weaker binding.

Chain of O-GlcNAcase (OGA) (Q9EQQ9 whole entry): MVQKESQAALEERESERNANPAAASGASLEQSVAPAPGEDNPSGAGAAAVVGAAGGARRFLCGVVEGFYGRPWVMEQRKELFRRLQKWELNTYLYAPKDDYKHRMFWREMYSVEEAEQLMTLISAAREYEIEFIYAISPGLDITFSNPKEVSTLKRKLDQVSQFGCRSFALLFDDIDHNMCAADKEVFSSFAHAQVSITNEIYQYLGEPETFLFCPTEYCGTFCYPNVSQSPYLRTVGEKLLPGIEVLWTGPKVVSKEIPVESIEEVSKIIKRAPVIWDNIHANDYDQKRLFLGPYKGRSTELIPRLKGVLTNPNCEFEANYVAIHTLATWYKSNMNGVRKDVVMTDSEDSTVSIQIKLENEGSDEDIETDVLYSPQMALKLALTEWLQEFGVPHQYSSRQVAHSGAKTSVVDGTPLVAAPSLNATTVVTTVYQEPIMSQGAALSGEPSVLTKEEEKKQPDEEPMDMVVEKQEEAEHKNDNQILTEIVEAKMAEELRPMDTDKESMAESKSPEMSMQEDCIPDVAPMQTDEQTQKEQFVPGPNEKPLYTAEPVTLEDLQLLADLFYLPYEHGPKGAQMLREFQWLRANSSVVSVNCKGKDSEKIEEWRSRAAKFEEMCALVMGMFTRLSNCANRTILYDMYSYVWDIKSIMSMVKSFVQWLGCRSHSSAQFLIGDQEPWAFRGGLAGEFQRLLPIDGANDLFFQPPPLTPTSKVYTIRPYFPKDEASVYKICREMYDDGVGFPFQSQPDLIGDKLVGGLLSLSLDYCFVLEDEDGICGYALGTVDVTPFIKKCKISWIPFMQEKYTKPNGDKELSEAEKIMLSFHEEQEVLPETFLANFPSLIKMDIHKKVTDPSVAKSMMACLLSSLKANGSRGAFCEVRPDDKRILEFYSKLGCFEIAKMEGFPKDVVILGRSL

Compound `CCNC1=N[C@@H]2[C@@H](O)[C@H](O)[C@@H](CO)O[C@@H]2S1` [Thiamet G] showed a Kd of 1.7 nM. That is a single-digit nanomolar value.
